Residues, ends and D or L forms follow the SMILES beside them. *: point of attachment. Cbz = O=C(OCc1ccccc1)*; CH2F = FC*
Assays:
[1] = target: T1, Marasmius oreades agglutinin (MOA) (Marasmius oreades, UniProt Q8X123); assay: X-ray crystal structure (co-crystal, […]-1.[…] Å); assay type: binding; settings: calcium, imidazole pH 8.0
T1 construct: wild-type full-length 293 aa cDNA (MOApT7-LO), E. coli BL21(DE3), no tag mentioned; homodimer; model residues 2-293, Met1 probably cleaved

[2] = target: the molecule itself; assay: crystal structure; MOA 5 mg/ml mixed with Galα1,3(Fucα1,2)Gal trisaccharide (1:20) and Z-VAD-fmk (1:3, 1:20 or 1:30 MOA:inhibitor); 0.1 M imidazole pH 8.0, 10-16% PEG 8000, 0.2 M calcium acetate, with or without 5% DMSO; space group P6(3)22; three data sets (ZVAD-direct, ZVAD-inverted, ZVAD-dual)

C[C@@H]1O[C@@H](O[C@H]2C(O)O[C@H](CO)[C@H](O)[C@@H]2O[C@H]2O[C@H](CO)[C@H](O)[C@H](O)[C@H]2O)[C@@H](O)[C@H](O)[C@@H]1O (stereo partly drawn) [Galα1,3(Fucα1,2)Gal trisaccharide]
X-ray crystal structure (co-crystal, 1.6-1.7 Å) ([1]; three lectin-domain sugar sites (α, β, γ), 1:20 MOA:sugar): The three sugar binding sites of MOA show a different preference for the anomeric form

CC(C)[C@H](NC(=O)OCc1ccccc1)C(=O)N[C@@H](C)C(=O)N[C@@H](CC(=O)O)C(=O)CF [Z-VAD-fmk] (Cbz-Val-Ala-Asp-CH2F)
X-ray crystal structure (co-crystal, 1.6-1.7 Å) ([1]; covalent, thioether with catalytic Cys215, direct and inverted orientations): the inhibitor molecule binds to the active site of MOA forming a thioether

B1: Marasmius oreades agglutinin (MOA), wild type (enzyme)
chain: MSLRRGIYHIENAGVPSAIDLKDGSSSDGTPIVGWQFTPDTINWHQLWLAEPIPNVADTFTLCNLFSGTYMDLYNGSSEAGTAVNGWQGTAFTTNPHQLWTIKKSSDGTSYKIQNYGSKTFVDLVNGDSSDGAKIAGWTGTWDEGNPHQKWYFNRMSVSSAEAQAAIARNPHIHGTYRGYILDGEYLVLPNATFTQIWKDSGLPGSKWREQIYDCDDFAIAMKAAVGKWGADSWKANGFAIFCGVMLGVNKAGDAAHAYNFTLTKDHADIVFFEPQNGGYLNDIGYDSYMAFY
notes: Marasmius oreades agglutinin, wild-type cDNA in vector MOApT7-LO; 293 amino acids; Homodimer; one protomer in the asymmetric unit, the dimer arises by crystallographic symmetry; source: E. coli BL21 (DE3), purified (D-Gal-sepharose, cation exchange, size exclusion)
binding result [2]: binds
